Experiment [1] is described as follows: Inhibition of Phosphodiesterase 3 from rat diaphragm.
Experiment [2] concerns the target cGMP-specific 3',5'-cyclic phosphodiesterase (Rattus norvegicus, UniProt O54735). The experiment in a line: Inhibition of Phosphodiesterase 5 from rat diaphragm.

As to `C=C(C)[C@H](CC=C(C)C)Cc1c(O)cc(OC)c(C(=O)/C=C/c2ccc(O)cc2O)c1O` [KURAIDIN], the results for the IC50 in experiment [1] and in experiment [2] were 1250 nM and 640 nM, respectively.
On to `C=C(C)C(CCC(C)(C)O)Cc1c(O)cc(OC)c2c1O[C@H](c1ccc(O)cc1O)[C@H](O)C2=O` (stereo partly specified), for which the IC50 (usually the midpoint of a concentration-inhibition curve) in experiment [1] was 12800 nM; in experiment [2], 10600 nM.
`COc1cc(O)c(CC=C(C)C)c2oc(-c3ccc(O)cc3)c(O)c(=O)c12` [SOPHOFLAVESCENOL]: the IC50 in experiment [1] worked out at 410 nM. Also, in experiment [2], the IC50 stood at 13 nM and the Ki (in general, a measure of affinity in units of concentration, obtained from inhibition or displacement) turned out to be 5 nM.
In experiment [1], `C=C(C)C(CCC(C)(C)O)Cc1c(O)cc(OC)c2c1O[C@H](c1ccc(O)cc1O)[C@@H](O)C2=O` (stereo partly specified) had an IC50 of 13500 nM.
`C=C(C)[C@H](CCC(C)(C)O)Cc1c(O)cc(OC)c2c1O[C@H](c1ccc(O)cc1O)CC2=O` [KURARINOL]: the half-inhibitory concentration (IC50) in experiment [1] stood at 2950 nM; in experiment [2], 6100 nM.
`Cc1[nH]c(=O)c(C#N)cc1-c1ccncc1` [MILRINONE] had an IC50 in experiment [1] of 740 nM.

Values taken from ChEMBL document CHEMBL1135555 (Bioorg Med Chem Lett, 2002).
